Data taken from patent publication US9765101B2, “Organo-arsenoxide compounds and use thereof” (NewSouth Innovations Pty Limited, priority 2006, dated 2017).
“And” between values parts separate entries of the source, which are not always exact repeats. Equal values may be shown once.

Experiments:
[1] = tested on: LLC cells (lung carcinoma); assay: LLC cell proliferation assay (MTT, 72 h); type: cell-based, human; conditions: mouse Lewis lung carcinoma, read-out: IC50 for proliferation arrest
Description: (§1) BAE cells were from Cell Applications, San Diego, Calif. and BxPC-3, HT1080, LLC, PANC-1, MCF-7, HCT116 and K562 cells were from ATCC, Bethesda, Md. NB4 and MDCK2 cells were from Shane Supple (Kanematsu Laboratories, Royal Prince Alfred Hospital, Sydney, Australia) and P. Borst (The Netherlands Cancer Institute, Amsterdam, The Netherlands). BAE, HT1080, Panc-1, MCF-7, HCT116, MDCK2 and LLC cells were cultured in DMEM. NB4, K562 and BxPC-3 cells were cultured in RPMI medium. The cells were supplemented with 10% foetal calf serum (FBS), 2 mM L-glutamine, and 1 U·mL-1 penicillin/streptomycin. Cell culture plasticware was from Techno Plastic Products (Trasadingen, Switzerland). All other cell culture reagents were from Gibco (Gaithersburg, Md.).
(§2) Adherent cells were allowed to adhere overnight.

[2] = tested on: BAE cells; assay: BAE proliferation with glutathione depletion by BSO; type: cell-based, bovine; conditions: BAE cells co-treated with BSO, 72 h
Description: FIG. 12. Depletion of cellular glutathione increases (S)-Penicillamine-arsenoxide anti-proliferative activity. BAE cells were co-treated with (S)-Penicillamine-arsenoxide and the indicated concentrations of BSO for 72 h and the IC50 for proliferation arrest was calculated.
Treatment of BAE cells with glutathione reduced GSAO inhibition of BAE cell proliferation, while blocking de novo synthesis of glutathione with buthionine sulfoximine (BSO), an inhibitor of the γ-glutamyl cysteine synthase, enhanced the proliferation arrest by almost 100-fold (Dilda et al., 2005b).

[3] = tested on: MDCKII cells over-expressing MRP1; conditions: MD/MRP1; 96 h; relative to IC50 of non-transfected parental cells
Description: (§3) Transfectants of the Madin-Darby canine kidney II (MDCKII) polarised epithelial cell line, over-expressing multidrug resistance-associated proteins (MRP) 1, 2 or 3, have been described (Evers et al., 2000; Kool et al., 1999), as have the MEF/MDR1 clone H4 over-expressing human MDR1 or BCRP (Dilda et al., 2005b). Cells were grown and maintained as adherent monolayers in DMEM containing 10% calf serum (Cosmic™, Hyclone, Tauranga, New Zealand), 100 μg·mL^−1 penicillin and 60 μg·mL^−1 streptomycin. Cytotoxicity assays were performed as described previously (Allen et al., 1999).
(§4) Mammalian cells over-expressing MRP1, 2, 3 or 6, or MDR1 or BCRP were tested for resistance to (S)-Penicillamine-arsenoxide. MRP1, MRP2 or MRP3 was over-expressed in the canine kidney epithelial MDCKII cell line, while MRP6, MDR1 or BCRP was over-expressed in the murine embryo fibroblast MEF3.8 line. Cells were exposed to the indicated concentrations of (S)-Penicillamine-arsenoxide for 96 h and the number of viable cells measured and expressed relative to the number of untreated cells. Resistance factor is calculated relative to the (S)-Penicillamine arsenoxide IC50 for proliferation arrest of non-transfected parental cells.

[4] = tested on: MEF3.8 cells over-expressing MDR1; conditions: MEF/MDR1; 96 h; relative to IC50 of non-transfected parental cells
Description: as §3, §4

[5] = tested on: MEF3.8 cells over-expressing MRP6; conditions: MEF/MRP6; 96 h; relative to IC50 of non-transfected parental cells
Description: as §3, §4

[6] = tested on: MDCKII cells over-expressing MRP3; conditions: MD/MRP3; 96 h; relative to IC50 of non-transfected parental cells
Description: as §3, §4

[7] = tested on: MEF3.8 cells over-expressing BCRP; conditions: MEF/BCRP; 96 h; relative to IC50 of non-transfected parental cells
Description: as §3, §4

[8] = tested on: MDCKII cells over-expressing MRP2; conditions: MD/MRP2; 96 h; relative to IC50 of non-transfected parental cells
Description: as §3, §4

[9] = tested on: MCF-7 cells (mammary carcinoma); assay: MCF-7 cell proliferation assay (MTT, 72 h); type: cell-based; conditions: MCF-7, human mammary carcinoma; read-out: IC50 for proliferation arrest
Description: as §1, §2

[10] = tested on: BAE cells; assay: Accumulation of arsenical in BAE cells (cytosolic arsenic by inductively coupled plasma spectrometry); type: cell-based, bovine; conditions: 50 μM
Description: BAE cells were seeded at a density of 1.5×10^6 cells in Petri dishes and allowed to adhere overnight. Cells were incubated with 50 μM (S)-Penicillamine-arsenoxide at discrete times for up to 2 h at 37° C. and then washed three times with ice-cold PBS. The washed cells were lysed in 1 mL of 70% w/w nitric acid. Petri dishes were then washed twice with 1 mL of PBS and kept at 4° C. until use. Samples were diluted 10-fold and analysed for arsenic atoms using an Elan 6100 Inductively Coupled Plasma Spectrometer (Perkin Elmer Sciex Instruments, Shelton, Conn.).

[11] = tested on: BAE cells; assay: BAE cell proliferation assay (MTT, 72 h); type: cell-based, bovine
Description: as §1, §2

Compound: CC(C)(SCC(=O)Nc1ccc([As](O)O)cc1)[C@@H](N)C(=O)O [(S)-Penicillamine-arsenoxide, 4-(N—(S-penicillaminylacetyl)amino)phenylarsinous acid]
- IC50 [1]: 5000 nM
- enhancement of IC50 for proliferation arrest by BSO [2]: approximately 25 fold
- Resistance Factor [3]: 3.7
- Resistance Factor [4]: 1.2
- Resistance Factor [5]: 1.3
- Resistance Factor [6]: 0.8
- Resistance Factor [7]: 1.1
- Resistance Factor [8]: 4.6
- IC50 [9]: 9000 nM
- initial rate of accumulation [10]: 69 pmol per 10^6 cells per min
- times more effective than GSAO at blocking proliferation and reducing the viability of endothelial cells [11]: ~25 times
- IC50 ([11]; 72 h, read-out: IC50 for proliferation arrest): 400 nM and 430 nM
